Experiment [1] deals with differentiated L6-myotubes. Description: Glucose uptake screen (Biological example 1 of WO 2019/053427). The experiment is classed as cell-based. To be noted: compound at 10 μM, activity relative to isoproterenol at 10 μM, read-out: Biological example 1 of WO 2019/053427 (GU). The method, boiled down:
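Rat L6 myoblasts were differentiated into myotubes over 7 days in 2% FBS, then serum-starved overnight. Cells were stimulated with 1×10^−5 M compound plus β2 antagonist ICI-118551 for 1 h 40 min and re-dosed for 20 min in glucose-free medium. Uptake of 50 nM ^3H-2-deoxyglucose over 10 min was counted after NaOH lysis.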

Experiment [2] deals with differentiated L6-myotubes. Description: cAMP production relative to isoprenaline (Biological example 2 of WO 2019/053427). The experiment is classed as cell-based. To be noted: 0.25 h, compound at 10 μM, activity relative to isoproterenol at 10 μM. Summed up: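 Differentiated L6 myotubes stimulated 15 min with test compound or isoprenaline, each at final 1×10^−5 M, in HBSS with 1% BSA, 5 mM HEPES, 1 mM IBMX, pH 7.4. cAMP production by the compound expressed relative to that induced by the same concentration of isoprenaline.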

Turning to `CC1(C)C[C@@H]([C@@H](O)c2cccc(Cl)c2)N1` [Compound 231, (S)-[(S)-4,4-dimethyl-2-azetidinyl](m-chlorophenyl)methanol], the Emax at 10 µM is 25 to 50% in experiment [1] and less than 25% in experiment [2].
For `CC1(C)C[C@@H]([C@H](O)c2cccc(Cl)c2)N1` [Compound 232, (R)-[(S)-4,4-dimethyl-2-azetidinyl](m-chlorophenyl)methanol], in that order: 25 to 50% and less than 25%.
Consider `CC1(C)C[C@H]([C@@H](O)c2cccc(Cl)c2)N1` [Compound 233, (S)-[(R)-4,4-dimethyl-2-azetidinyl](m-chlorophenyl)methanol], for which the Emax at 10 µM in experiment [1] and in experiment [2] was less than 25% in each case.
Take `CCC[C@H]1CCCC[C@@H]([C@H](O)c2cncc(F)c2)N1` [Compound 234, (R)-[(2S,7S)-7-propyl-2-azepanyl](5-fluoro-3-pyridyl)methanol]: the Emax at 10 µM in experiment [1] is greater than 75%; in experiment [2], less than 25%.
The like results for `CCC[C@H]1CCCC[C@@H]([C@@H](O)c2cncc(F)c2)N1` [Compound 235, (S)-[(2S,7S)-7-propyl-2-azepanyl](5-fluoro-3-pyridyl)methanol] were, in that order, less than 25% and less than 25%.
For `CC1(C)CC[C@H]([C@@H](O)c2cc(F)c(N)c(F)c2)N1` [Compound 236, (S)-[(R)-5,5-dimethyl-2-pyrrolidinyl](4-amino-3,5-difluorophenyl)methanol], in that order: greater than 75% and 25 to 50%.
The like results for `CO[C@H]1CC[C@@H](CCNC[C@H](O)c2cccc(F)c2)CC1` [Compound 237, (R)-1-(m-fluorophenyl)-2-{2-[(1s,4S)-4-methoxycyclohexyl]ethyl-amino}-1-ethanol] were, in that order, 50 to 75% and less than 25%.
Take `CO[C@H]1CC[C@@H](CCNC[C@H](O)c2cncc(F)c2)CC1` [Compound 238, (R)-1-(5-fluoro-3-pyridyl)-2-{2-[(1s,4S)-4-methoxycyclohexyl]ethyl-amino}-1-ethanol]: the Emax at 10 µM in experiment [1] is greater than 75%; in experiment [2], less than 25%.
As for `CO[C@H]1CC[C@H](C(C)(C)NC[C@H](O)c2cccc(F)c2)CC1` [Compound 239, (R)-1-(m-fluorophenyl)-2-{1-methyl-1-[(1r,4R)-4-methoxycyclohexyl]ethyl-amino}-1-ethanol], the Emax at 10 µM is greater than 75% in experiment [1] and less than 25% in experiment [2].
With `CO[C@H]1CC[C@H](C(C)(C)NC[C@H](O)c2cncc(F)c2)CC1` [Compound 240, (R)-1-(5-fluoro-3-pyridyl)-2-{1-methyl-1-[(1r,4R)-4-methoxycyclohexyl]ethyl-amino}-1-ethanol], the results for the Emax at 10 µM in experiment [1] and in experiment [2] were greater than 75% and less than 25%, respectively.
For `CC12CC(C1)[C@H]([C@H](O)c1cccc(N)c1F)N2` [Compound 241, (R)-{(R)-1-methyl-2-azabicyclo[2.1.1]hex-3-yl}(3-amino-2-fluorophenyl)methanol], in that order: greater than 75% and less than 25%.
For `CC12CC(C1)[C@@H]([C@@H](O)c1cccc(N)c1F)N2` [Compound 242, (S)-{(S)-1-methyl-2-azabicyclo[2.1.1]hex-3-yl}(3-amino-2-fluorophenyl)methanol], the Emax at 10 µM in experiment [1] was 50 to 75%; in experiment [2], less than 25%.
For `CC12CC(C1)[C@H]([C@@H](O)c1cccc(N)c1F)N2` [Compound 243, (S)-{(R)-1-methyl-2-azabicyclo[2.1.1]hex-3-yl}(3-amino-2-fluorophenyl)methanol], in that order: 50 to 75% and less than 25%.
For `CC12CC(C1)[C@@H]([C@H](O)c1cccc(N)c1F)N2` [Compound 244, (R)-{(S)-1-methyl-2-azabicyclo[2.1.1]hex-3-yl}(3-amino-2-fluorophenyl)methanol], in that order: 50 to 75% and less than 25%.
With `CO[C@H]1CC[C@@H](CNC[C@H](O)c2cccc(F)c2)CC1` [Compound 245, (R)-1-(m-fluorophenyl)-2-({[(1s,4S)-4-methoxycyclohexyl]meth-yl}amino)-1-ethanol], the Emax at 10 µM in experiment [1] is 50 to 75%; in experiment [2], less than 25%.
For `CO[C@H]1CC[C@@H](CNC[C@H](O)c2cncc(F)c2)CC1` [Compound 246, (R)-1-(5-fluoro-3-pyridyl)-2-({[(1s,4S)-4-methoxycyclohexyl]meth-yl}amino)-1-ethanol], in that order: 50 to 75% and less than 25%.
The like results for `CO[C@H]1CC[C@@H](CC(C)(C)NC[C@H](O)c2cccc(F)c2)CC1` [Compound 247, (R)-2-{1,1-dimethyl-2-[(1s,4S)-4-methoxycyclohexyl]ethyl-amino}-1-(m-fluorophenyl)-1-ethanol] were, in that order, greater than 75% and less than 25%.
Turning to `CO[C@H]1CC[C@@H](CC(C)(C)NC[C@H](O)c2cncc(F)c2)CC1` [Compound 248, (R)-2-{1,1-dimethyl-2-[(1s,4S)-4-methoxycyclohexyl]ethyl-amino}-1-(5-fluoro-3-pyridyl)-1-ethanol], the Emax at 10 µM is greater than 75% in experiment [1] and less than 25% in experiment [2].
The like results for `CO[C@H]1CC[C@H](CC(C)(C)NC[C@H](O)c2cccc(F)c2)CC1` [Compound 249, (R)-2-{1,1-dimethyl-2-[(1r,4R)-4-methoxycyclohexyl]ethyl-amino}-1-(m-fluorophenyl)-1-ethanol] were, in that order, greater than 75% and less than 25%.
As for `CO[C@H]1CC[C@H](CC(C)(C)NC[C@H](O)c2cncc(F)c2)CC1` [Compound 250, (R)-2-{1,1-dimethyl-2-[(1r,4R)-4-methoxycyclohexyl]ethyl-amino}-1-(5-fluoro-3-pyridyl)-1-ethanol], the Emax at 10 µM is 50 to 75% in experiment [1] and less than 25% in experiment [2].
Take `CO[C@H]1CC[C@@H](C(C)(C)NC[C@H](O)c2cccc(F)c2)CC1` [Compound 251, (R)-1-(m-fluroophenyl)-2-{1-methyl-1-[(1s,4S)-4-methoxycyclohexyl]ethyl-amino}-1-ethanol]: the Emax at 10 µM in experiment [1] and in experiment [2] was less than 25% in each case.
Consider `CO[C@H]1CC[C@@H](C(C)(C)NC[C@H](O)c2cncc(F)c2)CC1` [Compound 252, (R)-1-(5-fluoro-3-pyridyl)-2-{1-methyl-1-[(1s,4S)-4-methoxycyclohexyl]ethyl-amino}-1-ethanol], for which the Emax at 10 µM in experiment [1] and in experiment [2] was less than 25% each time.
For `CC12CCC([C@@H](O)c3ccncc3F)(CC1)N2` [Compound 253, (S)-(3-fluoro-4-pyridyl)(4-methyl-7-azabicyclo[2.2.1]hept-1-yl)methanol], the Emax at 10 µM in experiment [1] and in experiment [2] was less than 25% each time.
As to `CC12CCC([C@H](O)c3ccncc3F)(CC1)N2` [Compound 254, (R)-(3-fluoro-4-pyridyl)(4-methyl-7-azabicyclo[2.2.1]hept-1-yl)methanol], the Emax at 10 µM in experiment [1] and in experiment [2] was less than 25% throughout.
For the compound `CO[C@@H]1CCC[C@H](C(C)(C)NC[C@H](O)c2cccc(F)c2)C1` [Compound 255, (R)-2-{1-[(1S,3R)-3-methoxycyclohexyl]-1-methylethylamino}-1-(m-fluorophenyl)-1-ethanol], the Emax at 10 µM in experiment [1] was greater than 75%; in experiment [2], less than 25%.
The like results for `CO[C@H]1CCC[C@@H](C(C)(C)NC[C@H](O)c2cccc(F)c2)C1` [Compound 256] were, in that order, greater than 75% and 25 to 50%.
For `CO[C@@H]1CCC[C@H](C(C)(C)NC[C@H](O)c2cncc(F)c2)C1` [Compound 257, (R)-2-{1-[(1S,3R)-3-methoxycyclohexyl]-1-methylethylamino}-1-(5-fluoro-3-pyridyl)-1-ethanol], in that order: 50 to 75% and less than 25%.
The like results for `CO[C@H]1CC[C@@H](CCCNC[C@H](O)c2cccc(F)c2)CC1` [Compound 258, (R)-1-(m-fluorophenyl)-2-{3-[(1s,4R)-4-methoxycyclohexyl]propyl-amino}-1-ethanol] were, in that order, greater than 75% and 50 to 75%.
`CO[C@H]1CC[C@H](CCCNC[C@H](O)c2cccc(F)c2)CC1` [Compound 259, (R)-1-(m-fluorophenyl)-2-{3-[(1r,4S)-4-methoxycyclohexyl]propyl-amino}-1-ethanol]: the results for the Emax at 10 µM in experiment [1] and in experiment [2] were 25 to 50% and less than 25%, respectively.
For `CO[C@H]1CC[C@@H](CCCNC[C@H](O)c2cncc(F)c2)CC1` [Compound 260, (R)-1-(5-fluoro-3-pyridyl)-2-{3-[(1s,4R)-4-methoxycyclohexyl]propyl-amino}-1-ethanol], in that order: greater than 75% and less than 25%.
For `CO[C@H]1CC[C@H](CCCNC[C@H](O)c2cncc(F)c2)CC1` [Compound 261, (R)-1-(5-fluoro-3-pyridyl)-2-{3-[(1r,4S)-4-methoxycyclohexyl]propyl-amino}-1-ethanol], in that order: less than 25% and less than 25%.
For `O[C@@H](CNC[C@H]1CC[C@@H](OCc2ccccc2)CC1)c1cccc(F)c1` [Compound 262, (R)-1-(m-fluorophenyl)-2-({[(1s,4S)-4-(benzyloxy)cyclohexyl]methyl}amino)-1-ethanol], in that order: 25 to 50% and less than 25%.
As to `O[C@@H](CNC[C@H]1CC[C@@H](OCc2ccccc2)CC1)c1cncc(F)c1` [Compound 263, (R)-1-(5-fluoro-3-pyridyl)-2-({[(1s,4S)-4-(benzyloxy)cyclohexyl]methyl}amino)-1-ethanol], the Emax at 10 µM in experiment [1] is greater than 75%; in experiment [2] it was less than 25%.

For the origin of these results see patent US20260256751A1, “COMBINATION OF BETA-2-ADRENERGIC RECEPTOR AGONISTS AND GLP-1 RECEPTOR AGONISTS FOR USE IN TREATING HYPERGLYCAEMIA” (ATROGI AB, priority 2023, published 2026).
